From publication PMC11877502, “Cytotoxic Stilbenoids, Hetero- and Homodimers of Homoisoflavonoids from Prospero autumnale” (Journal of Natural Products, 2025)
Read-outs that look alike come from different tables or passages of the source.

Tests used:
LoVo [1] = experiment: MTS cytotoxicity assay; type: cell-based; conditions: Homo sapiens, 48 h, triplicate, read-out: IC50 ± SEM LoVo
Procedure: (§1) Stock solutions of extracts and compounds were prepared by dissolving in DMSO (Sigma-Aldrich, no. D2650) at the concentrations of 100 mg/mL and 100 mM for extracts and compounds, respectively. […] Untreated cells were used as a control, while plain culture medium was used as a blank. Viability was determined with MTS Assay (Abcam #ab197010) according to the manufacturer’s instructions. Absorbance at 490 nm was measured with a spectrophotometer (Epoch, BioTek Instruments). Relative viability ratios were calculated with the equation given below, and IC50 values were determined in GraphPad Prism (version 8.0). [drawing 2]

PC3 [2] = experiment: MTS cytotoxicity assay; type: cell-based; conditions: Homo sapiens, PC-3, 48 h, triplicate
Procedure: as §1

DU145 [3] = experiment: MTS cytotoxicity assay; type: cell-based; conditions: Homo sapiens, DU-145, 48 h, triplicate
Procedure: as §1

MDA-MB-231 [4] = experiment: MTS cytotoxicity assay; type: cell-based; conditions: Homo sapiens, 48 h, triplicate
Procedure: as §1

MCF7 [5] = experiment: MTS cytotoxicity assay; type: cell-based; conditions: Homo sapiens, 48 h, triplicate
Procedure: as §1

HCT116 [6] = experiment: MTS cytotoxicity assay; type: cell-based; conditions: Homo sapiens, HCT-116, 48 h, triplicate
Procedure: as §1

HEPG2 [7] = experiment: MTS cytotoxicity assay; type: cell-based; conditions: Homo sapiens, 48 h, triplicate, read-out: IC50 ± SEM HEPG2
Procedure: as §1

HEP3B [8] = experiment: MTS cytotoxicity assay; type: cell-based; conditions: Homo sapiens, 48 h, triplicate
Procedure: as §1

[9] = test system: L929 nontumor mouse fibroblast cell line; experiment: MTS cytotoxicity assay, nontumor cell line; type: cell-based; conditions: 48 h, triplicate
Procedure: as §1

MCF7 [10] = experiment: Annexin V/propidium iodide staining; type: cell-based, human; conditions: 48 h at IC50 concentration, flow cytometry
Procedure: (§2) Apoptosis, necrosis, and viability were analyzed by Annexin V-FITC and […] (PI) staining. For this purpose, cells were seeded at 5 × 10^5 cells per 60 mm dish and incubated overnight to allow attachment. Then, cells were treated with the selected compounds (1, 2, 4, and 10) for 48 h at respective IC50 concentrations. For flow cytometric analysis, cells were detached with Trypsin-EDTA solution (Thermo Fisher Scientific #25200056), washed with Dulbecco’s phosphate buffered saline (DPBS, Thermo Fisher Scientific #14190094) solution, and suspended in 1 mL of ice-cold Annexin V Binding Buffer (BioLegend #422201). Cells were then stained with 1 μL of Annexin V-FITC (Biovision #1001) and 1 μL PI (Thermo Fisher Scientific # P1304MP, diluted to 250 μg/mL in DPBS) by incubating cells on ice for 15 min in the dark. Cells were then immediately analyzed on a Beckman Coulter DxFLEX flow cytometry system. Each analysis was performed in triplicate, and 25 × 10^3 events were counted for each tube. Evaluations were done with CytEXPERT software.

HCT116 [11] = experiment: Annexin V/propidium iodide staining; type: cell-based, human; conditions: 48 h at IC50 concentration, flow cytometry
Procedure: as §2

HEPG2 [12] = experiment: Annexin V/propidium iodide staining; type: cell-based, human; conditions: 48 h at IC50 concentration, flow cytometry
Procedure: as §2

LoVo [13] = experiment: DNA content (cell cycle) analysis; type: cell-based, human; conditions: 48 h, DNA content by flow cytometry
Procedure: (§3) To investigate cell cycle progression, cells were seeded as 5 × 10^5 cells per 60 mm dish and incubated overnight for attachment. After incubating with the selected compounds for 48 h, cells were detached with Trypsin-EDTA, washed once with DPBS, and fixed with ice-cold 70% EtOH by storing tubes at 4 °C for an hour. Then, EtOH was discarded by centrifuging cells, and the pellet was suspended in 500 μL cell cycle kit reagent (Beckman Coulter #C03551). Tubes were incubated at room temperature under the dark for 30 min. The experiment was done on triplicate, and 5 × 10^4 cells per test were acquired at a medium flow rate with the Beckman Coulter DxFLEX flow cytometry system. Analyses were performed with ModFit LT version 4.0.

MDA-MB-231 [14] = experiment: DNA content (cell cycle) analysis; type: cell-based, human; conditions: 48 h, DNA content by flow cytometry
Procedure: as §3

MCF7 [15] = experiment: DNA content (cell cycle) analysis; type: cell-based, human; conditions: 48 h, DNA content by flow cytometry
Procedure: as §3

HCT116 [16] = experiment: DNA content (cell cycle) analysis; type: cell-based, human; conditions: 48 h, DNA content by flow cytometry
Procedure: as §3

HEPG2 [17] = experiment: DNA content (cell cycle) analysis; type: cell-based, human; conditions: 48 h, DNA content by flow cytometry
Procedure: as §3

[18] = test system: human cancer cell lines (HCT116, LoVo, DU145, PC3, HEP3B, HEPG2, MCF7, MDA-MB-231); experiment: MTS cytotoxicity assay, panel statements; type: cell-based; conditions: 48 h, span over compounds and cell lines, read-out: IC50 toward one or more cancer cell lines
Procedure: as §1

LoVo [19] = experiment: Annexin V/propidium iodide staining; type: cell-based, human; conditions: 48 h at IC50 concentration, flow cytometry
Procedure: (§4) Apoptosis, necrosis, and viability were analyzed by Annexin V-FITC and […] (PI) staining. For this purpose, cells were seeded at 5 × 10^5 cells per 60 mm dish and incubated overnight to allow attachment. […] Cells were then immediately analyzed on a Beckman Coulter DxFLEX flow cytometry system. Each analysis was performed in triplicate, and 25 × 10^3 events were counted for each tube. Evaluations were done with CytEXPERT software.

MDA-MB-231 [20] = experiment: Annexin V/propidium iodide staining; type: cell-based, human; conditions: 48 h at IC50 concentration, flow cytometry
Procedure: as §4

HEP3B [21] = experiment: Annexin V/propidium iodide staining; type: cell-based, human; conditions: 48 h at IC50 concentration, flow cytometry
Procedure: as §2

HEP3B [22] = experiment: DNA content (cell cycle) analysis; type: cell-based, human; conditions: 48 h, DNA content by flow cytometry
Procedure: as §3

PC3 [23] = experiment: Annexin V/propidium iodide staining; type: cell-based, human; conditions: 48 h at IC50 concentration, flow cytometry
Procedure: as §2

DU145 [24] = experiment: Annexin V/propidium iodide staining; type: cell-based, human; conditions: 48 h at IC50 concentration, flow cytometry
Procedure: as §2

PC3 [25] = experiment: DNA content (cell cycle) analysis; type: cell-based, human; conditions: 48 h, DNA content by flow cytometry
Procedure: as §3

[26] = read-out: IC50 ± SEM MDA-MB-231

| SMILES | IC50 (LoVo [1]) | IC50 (PC3 [2]; read-out: IC50 ± SEM PC3) | IC50 (DU145 [3]; read-out: IC50 ± SEM DU145) | IC50 (MDA-MB-231 [4]; [26]) | IC50 (MCF7 [5]; read-out: IC50 ± SEM MCF7) | IC50 (HCT116 [6]; read-out: IC50 ± SEM HCT116) | IC50 (HEPG2 [7]) | IC50 (HEP3B [8]; read-out: IC50 ± SEM HEP3B) | IC50 ([9]; read-out: IC50 ± SEM L929) | cell cycle effect, LoVo (LoVo [13]) | IC50 [18] | apoptosis/necrosis vs control, LoVo (LoVo [19]) | further results |
| --- | --- | --- | --- | --- | --- | --- | --- | --- | --- | --- | --- | --- | --- |
| COc1c(O)c(OC)c2c(c1O)OC[C@@H](Cc1ccc(O)cc1)C2=O [Compound 7, 3R-(4′-hydroxybenzyl)-6,8-dihydroxy-5,7-dimethoxy-4-chromanone] | > 100 µM | > 100 µM | > 100 µM | > 100 µM | > 100 µM | > 100 µM | > 100 µM | > 100 µM | > 100 µM |  |  |  |  |
| COc1cccc2c1C(=O)c1c(O)c3c(c(O)c1C2=O)C[C@@](O)(C(=O)CO)C[C@@H]3O[C@H]1C[C@H](N)[C@H](O)[C@H](C)O1 [doxorubicin, reference compound] | 2.4 ± 0.2 µM | 0.9 ± 0.1 µM | 5.9 ± 0.4 µM | 2.3 ± 0.3 µM | 2.3 ± 0.3 µM | 0.9 ± 0.1 µM |  | 1.1 ± 0.1 µM | > 100 µM |  |  |  | IC50 (PC3 [2]; read-out: IC50 ± SEM PC3, extract/fraction): 0.88 ± 0.08 µg/mL; IC50 (DU145 [3]; read-out: IC50 ± SEM DU145, extract/fraction): 5.93 ± 0.38 µg/mL; IC50 (MDA-MB-231 [4]; read-out: IC50 ± SEM MDA-MB-231, extract/fraction): 2.33 ± 0.33 µg/mL; IC50 (MCF7 [5]; read-out: IC50 ± SEM MCF7, extract/fraction): 2.32 ± 0.28 µg/mL; IC50 (HCT116 [6]; read-out: IC50 ± SEM HCT116, extract/fraction): 0.86 ± 0.14 µg/mL; IC50 (HEP3B [8]; read-out: IC50 ± SEM HEP3B, extract/fraction): 1.1 ± 0.07 µg/mL; IC50 ([9]; read-out: IC50 ± SEM L929, extract/fraction): > 100 µg/mL |
| COc1ccc([C@H]2c3c(/C=C/c4ccc(O)cc4)cc(OC)c(C)c3O[C@@H]3Oc4cc(O)cc(O)c4C(=O)[C@@H]32)cc1 [Compound 10, prosperin C] | 16.7 ± 0.8 µM | 36.7 ± 2.5 µM | 40.1 ± 2.8 µM | 25.5 ± 2.4 µM | 25.2 ± 5.1 µM | 19.3 ± 3.1 µM | 24 ± 2.2 µM | 59.9 ± 6.9 µM | 29.7 ± 1.7 µM | G0/G1 phase arrest | 8.2 to 37.6 µM | apoptosis along with necrosis | apoptosis/necrosis vs control, MCF7 (MCF7 [10]): increased apoptosis and necrosis; apoptosis/necrosis vs control, HCT116 (HCT116 [11]): significant increase in apoptosis; apoptosis/necrosis vs control, HEPG2 (HEPG2 [12]): higher late apoptosis and necrosis; cell cycle effect, MDA-MB-231 (MDA-MB-231 [14]): G0/G1 phase arrest; cell cycle effect, MCF7 (MCF7 [15]): G0/G1 phase arrest; cell cycle effect, HCT116 (HCT116 [16]): G0/G1 phase arrest; cell cycle effect, HEPG2 (HEPG2 [17]): slight S phase decrease; apoptosis/necrosis vs control, MDA-MB-231 (MDA-MB-231 [20]): increased apoptosis and necrosis |
| COc1cc(O)cc(/C=C/c2ccc(O)cc2)c1 [Compound 2, pinostilbene] | 8.2 ± 0.4 µM | 88.7 ± 10.9 µM | > 100 µM | 23.3 ± 1.4 µM | 95.7 ± 15 µM | 71.3 ± 12.6 µM | 51.8 ± 10 µM | 93.5 ± 8.9 µM | 13.4 ± 1.7 µM | S phase arrest | 8.2 to 37.6 µM | apoptosis along with necrosis | cell cycle effect, MDA-MB-231 (MDA-MB-231 [14]): S phase arrest; apoptosis/necrosis vs control, MDA-MB-231 (MDA-MB-231 [20]): more efficient in inducing apoptosis compared to 10 |
| O=C1/C(=C/c2ccc(O)cc2)COc2cc(O)cc(O)c21 [Compound 4, (E)-4′-O-demethyleucomin] | 40.4 ± 2.9 µM | 88.1 ± 8.6 µM | > 100 µM | 77.5 ± 3.9 µM | 95.3 ± 4.7 µM | 45.8 ± 8.4 µM | > 100 µM | 33.7 ± 3 µM | > 100 µM |  | 8.2 to 37.6 µM |  | apoptosis/necrosis vs control, HEP3B (HEP3B [21]): significantly increased early apoptosis along with necrosis; cell cycle effect, HEP3B (HEP3B [22]): G2/M phase arrest |
| COc1cc(/C=C/c2ccc(O)cc2)cc(O)c1C [Compound 1, 3,4′-dihydroxy-4-methyl-5-methoxystilbene] | 10.6 ± 0.5 µM | 21.3 ± 2.1 µM | 29.7 ± 4.4 µM | 79.6 ± 5.6 µM | 53.5 ± 9.1 µM | 54.6 ± 5.5 µM | 37.6 ± 5.3 µM | 59.8 ± 4.2 µM | 33.7 ± 3.9 µM | S phase arrest | 8.2 to 37.6 µM | apoptosis along with necrosis | apoptosis/necrosis vs control, PC3 (PC3 [23]): promoting apoptosis and necrosis; apoptosis/necrosis vs control, DU145 (DU145 [24]): promoting apoptosis and necrosis; cell cycle effect, PC3 (PC3 [25]): S phase arrest |
| COc1ccc(C(c2c(O)cc3c(c2O)C(=O)/C(=C/c2ccc(O)cc2)CO3)c2coc3cc(O)cc(O)c3c2=O)cc1 (stereo not shown) [Compound 9, prosperin B] | > 100 µM | > 100 µM | > 100 µM | > 100 µM | > 100 µM | 75.8 ± 8 µM | > 100 µM | > 100 µM | > 100 µM |  |  |  |  |
| COc1cc(/C=C/c2cc(O)c(C)c(O)c2)ccc1O [Compound 3, scillabene A] | 83.4 ± 3.9 µM | > 100 µM | > 100 µM | > 100 µM | > 100 µM | > 100 µM | > 100 µM | 82.7 ± 3.9 µM | > 100 µM |  |  |  |  |
